Measured values published in PMC4140816, “Differential Sensitivity of Src-Family Kinases to Activation by SH3 Domain Displacement” (PLoS ONE, 2014).
“And” between values parts separate entries of the source, which are not always exact repeats. Identical values can stand only once. Like-named read-outs stand apart in the source and are kept apart here.

Columns and labels:
Fyn-YEEI = Fyn-YEEI (Homo sapiens, UniProt P06241); experiment: Km determination, ADP Quest assay, Fyn-YEEI; type: biochemical; details: pH 7.4, 25°C, 150 ng/well kinase, mean ±S.E.
Chain of Fyn-YEEI (P06241 with tags, fused parts or gaps): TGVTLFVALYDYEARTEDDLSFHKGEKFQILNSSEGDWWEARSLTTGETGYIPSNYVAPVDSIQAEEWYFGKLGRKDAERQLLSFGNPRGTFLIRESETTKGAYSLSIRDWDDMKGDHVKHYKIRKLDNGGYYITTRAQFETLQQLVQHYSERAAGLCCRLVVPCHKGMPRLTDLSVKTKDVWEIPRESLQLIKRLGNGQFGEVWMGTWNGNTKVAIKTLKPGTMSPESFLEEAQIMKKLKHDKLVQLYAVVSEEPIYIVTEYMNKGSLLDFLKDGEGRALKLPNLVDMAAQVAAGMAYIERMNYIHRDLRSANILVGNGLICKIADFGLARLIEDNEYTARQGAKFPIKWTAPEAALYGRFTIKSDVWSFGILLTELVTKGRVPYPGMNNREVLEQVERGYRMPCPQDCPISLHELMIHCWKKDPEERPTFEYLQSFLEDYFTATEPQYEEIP

Hck-YEEI = Hck-YEEI (Homo sapiens, UniProt P08631, Q523E/Q524E/Q525I); experiment: Km determination, ADP Quest assay, Hck-YEEI; type: biochemical; details: pH 7.4, 25°C, 150 ng/well kinase, mean ±S.E.
Chain of Hck-YEEI (P08631 78-526 Q523E/Q524E/Q525I limits assumed): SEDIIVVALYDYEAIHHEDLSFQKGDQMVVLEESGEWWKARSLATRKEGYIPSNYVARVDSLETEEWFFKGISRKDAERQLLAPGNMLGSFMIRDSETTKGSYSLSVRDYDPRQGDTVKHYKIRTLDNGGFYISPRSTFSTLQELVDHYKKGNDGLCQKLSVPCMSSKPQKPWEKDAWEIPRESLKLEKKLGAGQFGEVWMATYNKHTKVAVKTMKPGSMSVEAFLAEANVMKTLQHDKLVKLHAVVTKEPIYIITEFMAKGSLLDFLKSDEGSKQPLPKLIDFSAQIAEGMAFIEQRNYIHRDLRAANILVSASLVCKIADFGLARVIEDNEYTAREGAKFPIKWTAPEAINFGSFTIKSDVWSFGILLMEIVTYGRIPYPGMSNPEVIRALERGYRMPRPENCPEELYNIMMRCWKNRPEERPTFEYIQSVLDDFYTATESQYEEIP

Lyn-YEEI = Lyn-YEEI (Homo sapiens, UniProt P07948, Q509E/Q510E/Q511I); experiment: Km determination, ADP Quest assay, Lyn-YEEI; type: biochemical; details: pH 7.4, 25°C, 250 ng/well kinase, mean ±S.E.
Chain of Lyn-YEEI (P07948 63-512 Q509E/Q510E/Q511I limits assumed): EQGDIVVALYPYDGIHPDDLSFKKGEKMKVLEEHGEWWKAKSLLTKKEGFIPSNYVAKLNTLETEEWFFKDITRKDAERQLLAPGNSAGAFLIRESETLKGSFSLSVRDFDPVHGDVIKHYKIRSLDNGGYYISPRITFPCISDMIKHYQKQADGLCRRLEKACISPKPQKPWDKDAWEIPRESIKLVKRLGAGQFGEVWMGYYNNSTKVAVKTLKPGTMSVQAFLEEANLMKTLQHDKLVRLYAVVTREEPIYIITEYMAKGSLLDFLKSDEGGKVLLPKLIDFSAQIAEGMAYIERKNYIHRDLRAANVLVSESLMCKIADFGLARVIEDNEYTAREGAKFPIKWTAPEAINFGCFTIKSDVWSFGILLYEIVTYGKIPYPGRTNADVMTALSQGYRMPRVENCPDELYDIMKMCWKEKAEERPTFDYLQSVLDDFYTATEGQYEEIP

Lyn SH3 domain = Lyn SH3 domain (Homo sapiens, UniProt P07948); experiment: SPR, VSL12 binding to Lyn SH3; details: biotinylated VSL12 on SA chip, 25°C, duplicate runs
Chain of Lyn SH3 domain (P07948 63-123 limits assumed): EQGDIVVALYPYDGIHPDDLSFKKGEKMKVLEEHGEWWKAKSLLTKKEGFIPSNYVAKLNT
Protocol: The biotinylated peptide was immobilized to 80 Response Units (RU) on the surface of a streptavidin (SA) biosensor chip. The recombinant purified Src SH3 domain proteins were flowed past the peptide over the concentration ranges shown. Association was measured for 180 s, followed by a 300 s dissociation phase.
The C-terminus of each construct was modified by the addition of the sequence […] as encoded by the XhoI site and the His6 tag in the vector. For expression of the SH3 and SH2 domains, E. coli strain Rosetta 2(DE3)pLysS (EMD Millipore) was transformed with each plasmid and cultures were grown at 37°C until the OD600 reached 0.8–1.0. Protein expression was induced with 0.4 mM isopropyl -D-thiogalactopyranoside (IPTG) for 4 h at 25°C. The isolated KDs were expressed as previously described by Seeliger, et al. For purification, cell pellets were resuspended in ion-exchange start buffer (20 mM Tris-HCl, pH 8.5, 5 mM -mercaptoethanol, 10% glycerol), sonicated, and clarified by centrifugation. […] Recombinant purified protein concentrations were quantified by Bradford assay using the BioRad Protein Assay Dye Reagent Concentrate and purified BSA as a reference standard (Pierce).
SPR experiments were performed using a Biacore 3000 Instrument (GE Healthcare) on a streptavidin (SA) biosensor chip. […] Association was measured for 180 s, followed by 300 s of dissociation in HBS-EP running buffer. […]

Src-YEEI = Src-YEEI (Homo sapiens, UniProt P12931); type: biochemical; details: pH 7.4; read-out: Km YIYGSFK
[1] = peptide substrate at Km, n = 3, read-out: Km ATP
[2] = ATP held constant at 200 (µM), n = 4, read-out: Km YIYGSFK

## Nc1ncnc2c1ncn2[C@@H]1O[C@H](COP(=O)(O)OP(=O)(O)OP(=O)(O)O)[C@@H](O)[C@H]1O [ATP]
Fyn-YEEI; [1]
  Km: 49.7 ± 8.2 µM
Hck-YEEI; [1]
  Km: 55.8 ± 18.5 µM
Lyn-YEEI; [1]
  Km: 31.1 ± 9.7 µM

## CC(C)C[C@H](NC(=O)[C@H](CO)NC(=O)[C@@H](N)C(C)C)C(=O)N[C@@H](C)C(=O)N[C@@H](CCCN=C(N)N)C(=O)N[C@@H](CCCN=C(N)N)C(=O)N1CCC[C@H]1C(=O)N[C@@H](CC(C)C)C(=O)N1CCC[C@H]1C(=O)N1CCC[C@H]1C(=O)N[C@@H](CC(C)C)C(=O)N1CCC[C@H]1C(=O)O [VSL12]
Lyn SH3 domain; 31.25-250 nM SH3, 1:1 Langmuir fit, χ^2 1.850, read-out: Kinetic KD
  Kd: 0.647 µM
Lyn SH3 domain; 31.25-250 nM SH3, steady state model, χ^2 0.225, read-out: Steady-State KD
  Kd: 0.562 µM

## YIYGSFK [SFK substrate peptide; Anaspec]
Src-YEEI
  Km: 159 µM
Fyn-YEEI; [2]
  Km: 70 µM and 69.6 µM
Hck-YEEI; [2]
  Km: 83.8 ± 12.5 µM
Lyn-YEEI; [2]
  Km: 83.2 ± 4.9 µM
